By ED50 is commonly meant the dose that gives a 50% effect, or the effect in half of the subjects.

These results are taken from patent publication US4535090A, “3,5-Diphenyl-1H-1,2,4-triazoles pharmaceutical compositions and uses” (Gruppo Lepetit S.p.A., priority 1981, dated 1985).

The test system of one assay is pregnancy in female Sprague Dawley rats. Description: Pregnancy termination activity in rats after a single subcutaneous injection at day 7 of gestation. In kind it is in vivo, rat (Sprague Dawley). The conditions noted are these: rat, single s.c. injection, dissolved in sesame oil containing 20% benzyl benzoate (or suspended if insoluble), autopsy day 16. As for the experimental part:
In particular, female Sprague Dawley rats weighing 200-230 g were mated and the presence of sperm in the vagina was taken as evidence of mating. The day the sperm was detected, was considered day one of pregnancy. Pregnancy was later confirmed at the time of autopsy by the presence of implantation sites in the uterus.
Test compounds dissolved in sesame oil containing 20% benzyl benzoate (or suspended if insoluble), were administered subcutaneously, in a single injection, on day 7 of gestation. The animals were then autopsied on day 16 of pregnancy and the uteri were examined for evidence of pregnancy (implantation sites, fetal resorption or live fetuses), hemorrage, and evidence of abnormalities of the uterus, placenta or fetuses.
For the molecule “1-acetyl-3(5)-(2-decanoyloxymethylphenyl)-5(3)-(3,4-dimethoxyphenyl)-1H-1,2,4-triazole [Example 10]”, the “ED50 (dose terminating pregnancy, absence of live fetuses, in 50% of the treated animals)” value is reported as 4 mg/kg.
The same measure, in the same setting: the figure for “1-hexanoyl-3(5)-(2-hexanoyloxymethylphenyl)-5(3)-(3-methoxyphenyl)-1H-1,2,4-triazole [Example 11]” is 8 mg/kg.

Staying with this assay, now noted: sc, rat, single s.c. injection, dissolved in sesame oil containing 20% benzyl benzoate (or suspended if insoluble), autopsy day 16, read-out: ED50 (dose terminating pregnancy, absence of live fetuses, in 50% of the treated animals).
As to `COc1cccc(-c2n[nH]c(-c3ccccc3COC(C)=O)n2)c1` [5-(2-Acetyloxymethylphenyl)-3-(3-methoxyphenyl)-1H--1,2,4-triazole, reference compound], the ED50 was 50 mg/kg.
Still for that read-out and setting: the figure for `CCCCCCCC(=O)OCc1ccccc1-c1nc(-c2cccc(OC)c2)n[nH]1` [Example 1, 3-(3-methoxyphenyl)-5-(2-octanoyloxymethylphenyl)-1H-1,2,4-triazole] is 13 mg/kg; for `CCCCCCCCCCCC(=O)OCc1ccccc1-c1nc(-c2cccc(OC)c2)n[nH]1` [Example 2, 5-(2-dodecanoyloxymethylphenyl)-3-(3-methoxyphenyl)-1H-1,2,4-triazole] it is 2 mg/kg; for `CCCCCCCC(=O)OCc1ccccc1-c1nc(-c2cccc(OCC)c2)n[nH]1` [Example 3, 3-(3-ethoxyphenyl)-5-(2-octanoyloxymethylphenyl)-1H-1,2,4-triazole] it is 4 mg/kg.
On the same count and under the same terms, to `CCCCCCCCCC(=O)OCc1ccccc1-c1nc(-c2cccc(OC)c2)n[nH]1` [Example 4, 5-(2-decanoyloxymethylphenyl)-3-(3-methoxyphenyl)-1H-1,2,4-triazole] belongs 2 mg/kg.
Still for that read-out and setting: the figure for `CCCCCCCCCCCC(=O)OCc1ccccc1-c1nc(-c2ccc(OC)c(OC)c2)n[nH]1` [Example 6, 5-(2-dodecanoyloxymethylphenyl)-3-(3,4-dimethoxyphenyl)-1H-1,2,4-triazole] is 2 mg/kg; for `CCCCCCCCCC(=O)OCc1ccccc1-c1nc(-c2cccc(OCC)c2)n[nH]1` [Example 7] it is 2 mg/kg; for `CCCCCCCCCC(=O)OCc1ccccc1-c1nc(-c2ccc(OC)c(OC)c2)n[nH]1` [Example 8, 5-(2-decanoyloxymethylphenyl)-3-(3,4-dimethoxyphenyl)-1H-1,2,4-triazole] it is 10 mg/kg.
Consider `CCCCCC(=O)OCc1ccccc1-c1nc(-c2cccc(OCC)c2)n[nH]1` [Example 9, 3-(3-ethoxyphenyl)-5-(2-hexanoyloxymethylphenyl)-1H-1,2,4-triazole], for which the ED50 turned out to be 7 mg/kg.

Still in this assay, the particulars now being: sc, rat, single s.c. injection, given suspended instead of dissolved, autopsy day 16, read-out: ED50 (dose terminating pregnancy, absence of live fetuses, in 50% of the treated animals).
As for `COc1cccc(-c2n[nH]c(-c3ccccc3CO)n2)c1` [5-(2-Hydroxymethylphenyl)-3-(3-methoxyphenyl)-1H--1,2,4-triazole, reference compound], the ED50 worked out at 40 mg/kg.
